Source: ChEMBL document CHEMBL1201862, “PubChem BioAssay data set” (2004)
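Interpolation was linear, between the two tested concentrations surrounding the appropriate level; five concentrations were tested over 48 hours in 96-well plates. Abbreviation: GI50, concentration required for 50% inhibition of growth.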 Calls of active or inactive are those of the source. Rule as the data show it: active = GI50 up to about 1.1 µM and inactive = higher.

Tests used:
Assay in all cases: inhibition of tumour cell growth, NCI panel, 48 h
U-251 = system: U-251
SNB-19 = system: SNB-19
786-0 = system: 786-0
KM12 = system: KM12
DU-145 = system: DU-145
MCF7 = system: MCF7
Malme-3M = system: Malme-3M
OVCAR-3 = system: OVCAR-3
BT-549 = system: BT-549
MOLT-4 = system: MOLT-4
UO-31 = system: UO-31
PC-3 = system: PC-3
IGROV-1 = system: IGROV-1
HCT-15 = system: HCT-15
UACC-62 = system: UACC-62
MDA-MB-435 = system: MDA-MB-435
SN12C = system: SN12C
CCRF-CEM = system: CCRF-CEM
HOP-92 = system: HOP-92
SW-620 = system: SW-620
HCT-116 = system: HCT-116
NCI-H460 = system: NCI-H460
NCI-H23 = system: NCI-H23
K562 = system: K562
Hs-578T = system: Hs-578T
OVCAR-4 = system: OVCAR-4
SK-MEL-2 = system: SK-MEL-2
A549 = system: A549
M14 = system: M14
ACHN = system: ACHN
TK-10 = system: TK-10
HT-29 = system: HT-29
RXF 393 = system: RXF 393
NCI-H226 = system: NCI-H226
A498 = system: A498
COLO 205 = system: COLO 205
HOP-62 = system: HOP-62
SF-268 = system: SF-268
SR = system: SR
MDA-N = system: MDA-N
MDA-MB-231 = system: MDA-MB-231
LOX IMVI = system: LOX IMVI
SK-MEL-5 = system: SK-MEL-5
SF-539 = system: SF-539
OVCAR-5 = system: OVCAR-5
SK-OV-3 = system: SK-OV-3
EKVX = system: EKVX
UACC-257 = system: UACC-257
SK-MEL-28 = system: SK-MEL-28
T47D = system: T47D
NCI/ADR-RES = system: NCI/ADR-RES
HL-60 = system: HL-60
RPMI-8226 = system: RPMI-8226
OVCAR-8 = system: OVCAR-8
SF-295 = system: SF-295
SNB-75 = system: SNB-75
NCI-H522 = system: NCI-H522
CAKI-1 = system: CAKI-1

For `Nc1nc(Nc2ccccc2)sc1C(=O)c1c[nH]c2ccccc12`, the GI50 (U-251) was 10.7 µM (inactive), the GI50 (SNB-19) was 3.28 µM (inactive) and the GI50 (786-0) was 5.52 µM (inactive). For the same compound, the GI50 (KM12) was 10.2 µM (inactive), the GI50 (DU-145) was 9.89 µM (inactive) and the GI50 (MCF7) was 11.8 µM (inactive). For the same compound, the GI50 (Malme-3M) was 19.4 µM (inactive), the GI50 (OVCAR-3) was 13.4 µM (inactive) and the GI50 (BT-549) was 14.8 µM (inactive). For the same compound, the GI50 (MOLT-4) was 2.08 µM (inactive), the GI50 (UO-31) was 2.56 µM (inactive) and the GI50 (PC-3) was 11.6 µM (inactive). The GI50 (IGROV-1) was 12.9 µM (inactive), the GI50 (HCT-15) was 3.95 µM and the GI50 (UACC-62) was 14.8 µM (inactive). The GI50 (MDA-MB-435) was 11.2 µM (inactive), the GI50 (SN12C) was 15.7 µM (inactive) and the GI50 (CCRF-CEM) was 3.2 µM (inactive). The GI50 (HOP-92) was 16.4 µM (inactive), the GI50 (SW-620) was 11.1 µM (inactive) and the GI50 (HCT-116) was 6.97 µM (inactive). For the same compound, the GI50 (NCI-H460) was 4.23 µM (inactive), the GI50 (NCI-H23) was 17.5 µM (inactive) and the GI50 (K562) was 4.06 µM (inactive). For the same compound, the GI50 (Hs-578T) was 16.3 µM (inactive), the GI50 (OVCAR-4) was 10.3 µM (inactive) and the GI50 (SK-MEL-2) was 15.1 µM (inactive). For the same compound, the GI50 (A549) was 7.52 µM (inactive), the GI50 (M14) was 8 µM (inactive) and the GI50 (ACHN) was 15.6 µM (inactive). For the same compound, the GI50 (TK-10) was 3.09 µM (inactive), the GI50 (HT-29) was 3.73 µM (inactive) and the GI50 (RXF 393) was 8.49 µM (inactive). The GI50 (NCI-H226) was 10.6 µM (inactive), the GI50 (A498) was 11.4 µM (inactive) and the GI50 (COLO 205) was 4.2 µM (inactive). For the same compound, the GI50 (HOP-62) was 16.7 µM (inactive), the GI50 (SF-268) was 15.1 µM (inactive) and the GI50 (SR) was 1.45 µM (inactive). For the same compound, the GI50 (MDA-N) was 12.4 µM (inactive), the GI50 (MDA-MB-231) was 17.2 µM (inactive) and the GI50 (LOX IMVI) was 13.5 µM (inactive). The GI50 (SK-MEL-5) was 11.8 µM (inactive), the GI50 (SF-539) was 12.4 µM (inactive) and the GI50 (OVCAR-5) was 11.9 µM (inactive). For the same compound, the GI50 (SK-OV-3) was 16.6 µM (inactive), the GI50 (EKVX) was 5.94 µM (inactive) and the GI50 (UACC-257) was 10.8 µM (inactive). The GI50 (SK-MEL-28) was 11.7 µM (inactive), the GI50 (T47D) was 6.49 µM (inactive) and the GI50 (NCI/ADR-RES) was 12.6 µM (inactive). For the same compound, the GI50 (HL-60) was 19.1 µM (inactive) and the GI50 (RPMI-8226) was 10.7 µM (inactive).

In the case of `CN1CCc2c(sc3ncn(N)c(=N)c23)C1`, the GI50 (U-251) is reported as > 100 µM (inactive), the GI50 (SNB-19) is reported as > 100 µM (inactive) and the GI50 (786-0) is reported as > 100 µM (inactive). For the same compound, the GI50 (KM12) was > 100 µM (inactive), the GI50 (DU-145) was > 100 µM (inactive) and the GI50 (MCF7) was > 100 µM (inactive). The GI50 (Malme-3M) was > 100 µM (inactive), the GI50 (OVCAR-3) was > 100 µM (inactive) and the GI50 (BT-549) was > 100 µM (inactive). For the same compound, the GI50 (MOLT-4) was > 100 µM (inactive), the GI50 (PC-3) was > 100 µM (inactive) and the GI50 (IGROV-1) was > 100 µM (inactive). The GI50 (HCT-15) was over 100 µM, the GI50 (OVCAR-8) was > 100 µM (inactive) and the GI50 (UACC-62) was > 100 µM (inactive). For the same compound, the GI50 (MDA-MB-435) was > 100 µM (inactive), the GI50 (SN12C) was > 100 µM (inactive) and the GI50 (CCRF-CEM) was 36.1 µM (inactive). The GI50 (HOP-92) was > 100 µM (inactive), the GI50 (SW-620) was > 100 µM (inactive) and the GI50 (SF-295) was > 100 µM (inactive). The GI50 (HCT-116) was > 100 µM (inactive), the GI50 (NCI-H460) was > 100 µM (inactive) and the GI50 (NCI-H23) was > 100 µM (inactive). The GI50 (K562) was > 100 µM (inactive), the GI50 (Hs-578T) was > 100 µM (inactive) and the GI50 (SNB-75) was > 100 µM (inactive). The GI50 (OVCAR-4) was > 100 µM (inactive), the GI50 (SK-MEL-2) was 61.2 µM (inactive) and the GI50 (NCI-H522) was 45.7 µM (inactive). For the same compound, the GI50 (A549) was > 100 µM (inactive), the GI50 (M14) was > 100 µM (inactive) and the GI50 (ACHN) was > 100 µM (inactive). The GI50 (TK-10) was > 100 µM (inactive), the GI50 (HT-29) was > 100 µM (inactive) and the GI50 (RXF 393) was > 100 µM (inactive). The GI50 (NCI-H226) was 78.9 µM (inactive), the GI50 (CAKI-1) was > 100 µM (inactive) and the GI50 (A498) was > 100 µM (inactive). For the same compound, the GI50 (HOP-62) was > 100 µM (inactive), the GI50 (SF-268) was > 100 µM (inactive) and the GI50 (SR) was 63.8 µM (inactive). For the same compound, the GI50 (MDA-N) was > 100 µM (inactive), the GI50 (MDA-MB-231) was > 100 µM (inactive) and the GI50 (LOX IMVI) was > 100 µM (inactive). The GI50 (SK-MEL-5) was > 100 µM (inactive), the GI50 (SF-539) was > 100 µM (inactive) and the GI50 (OVCAR-5) was > 100 µM (inactive). For the same compound, the GI50 (SK-OV-3) was > 100 µM (inactive), the GI50 (EKVX) was > 100 µM (inactive) and the GI50 (UACC-257) was > 100 µM (inactive). The GI50 (SK-MEL-28) was > 100 µM (inactive), the GI50 (T47D) was > 100 µM (inactive) and the GI50 (NCI/ADR-RES) was > 100 µM (inactive). For the same compound, the GI50 (HL-60) was > 100 µM (inactive) and the GI50 (RPMI-8226) was > 100 µM (inactive).
